Patent publication US12187767B2 (priority 2021, dated 2025)
Entries after “also recorded” stand apart in the source; their conditions may differ.

Experiments:
Assay type in all cases: cell-based
[1] = system: MCF-7 cells; assay: Acetylcholinesterase (AchE) assay of exosome/EV release; conditions: MCF-7 cells; five-day treatment at 37° C.
Procedure: (§1) 1.3. EV isolation and purification. EVs were isolated from cells by differential centrifugation as previously described (Ali SA. et al., 2010). Untreated cells were used as a control. Briefly, the above treated and untreated cell culture supernatants were centrifuged at 400×g for 10 minutes. The supernatants were transferred to a clear tube and centrifuged at 10,000×g for 30 minutes. The supernatants from the second spin were […] ultracentrifuged at 200,000×g for 2 hours to pellet the EVs. Finally, the EV pellets were re-suspended with PBS and stored at 4° C. until used for analysis.
(§2) 1.4. Exosome characterization by acetylcholinesterase (AchE) assay. Purified EVs were quantitated by measurement of AchE as described (Ellman et al., 1961). Briefly, a 100 mM dithibionitrobenzoic (DTNB) solution was prepared for use as a stock color indicator, and a 28.9 mg/mL acetylthiocholine iodide in PBS solution was prepared as a stock substrate. The stock substrate stock can be stored at −20° C. up to one month, while the color indicator can be stored at 4° C. for two weeks. A working solution was prepared by mixing 10 mL of PBS with 200 μL of Substrate and 500 μl of DTNB. 50 μL of each exosome sample was transferred to 96 well microtitre plates, and a standard curve was prepared using AchE from 0.98 mU/mL to 2000 mU/mL. After 50 μL of standards were added into separate wells, 200 μL of the working solution was added to all wells. After 20 min incubation, AchE activity was measured at 450 nm using a SpectroMax M5 fluorimeter.

[2] = system: MDA-MB-231 cells; assay: as above; conditions: MDA-MB-231 cells; five-day treatment at 37° C.
Procedure: as §1, §2

[3] = system: K562 cells; assay: Western blot analysis of EV protein content; conditions: 48 hours treatment
Procedure: as §1
(§3) 1.6. Western blot analysis. EVs were isolated from culture supernatants as described above. Protein concentrations were determined by measuring absorbance at 280 nm (Nanodrop 2000). Protein samples were denatured in SDS-PAGE sample buffer by heating at 95° C. for 15 min. Criterion TGX Precast Gels (4-20% Bio-Rad, Richmond, CA) were used to separate the proteins and blotted as previously described (Huang MB. et al 2004). Blots were incubated with the primary antibodies, anti-CD63 and anti-Alix, followed by goat or rabbit anti-Ig secondary antibodies. Specific bands were detected using ECL chemiluminescent substrate (Santa Cruz Biotechnology, Santa Cruz, CA) and visualized on the ImageQuant LAS 4000 imaging system (GE Healthcare, Piscataway, NJ 08854).
(§4) Western blot analysis was used to examine the effects of the SMRwt peptides, PEG-SMRwt-Clu peptide and SMRwt-CPP peptide, and the mortalin inhibitors MKT-077, Omeprazole, and DMA on EV protein content in MCF-7, MDA-MB-231 and K562 cells. Negative control treatments included the PEG-SMRmut-Clu peptide, […] (SEQ ID NO: 49) and the SMRmut-CPP peptide, […] (SEQ ID NO: 50). EVs were isolated from all treated and untreated cell lines screened. Western blot analyses were carried out to evaluate the expression levels of the exosomal proteins, Alix, mortalin, and vimentin in MCF-7 cells (FIG. 7, Panel A, left sub-panel), MDA-MB-231 cells (FIG. 7, Panel A, middle sub-panel), and K562 cells (FIG. 7, Panel A, right sub-panel).

[4] = system: MCF-7 cells; assay: Western blot analysis of EV protein content; conditions: 48 hours treatment; for Alix expression in EVs / Vimentin expression in EVs: relative to negative controls
Procedure: as §1, §3, §4

[5] = system: MDA-MB-231 cells; assay: Western blot analysis of EV protein content; conditions: 48 hours treatment
Procedure: as §1, §3, §4

[6] = system: MCF-7, MDA-MB-231 and K562 cells; assay: Exosome/EV release, overall statements across cell lines (AchE, NanoSight, Western blot); conditions: MCF-7, MDA-MB-231 and K562 cells; five days at 37° C.; AchE assay
Procedure: Acetylcholinesterase (AchE) assays, NanoSight analysis and Western blot analysis were performed to characterize EVs released from MCF-7 and MDA-MB-231 cells treated for 48 hr with the various peptides.
To further examine the underlying mechanism for blocking exosome release, a study was extended to examine the effects of the SMRwt peptides, PEG-SMRwt-Clu peptide and SMRwt-CPP peptide, and the mortalin inhibitors MKT-077, Omeprazole, and DMA on exosome release. In particular, acetylcholinesterase (AchE) assays, NanoSight analysis and Western blot analysis were performed to characterize EVs released from MCF-7, MDA-MB-231 and K562 cells. Panels A, B and C depict the relative numbers of EVs released as a function of time as measured by an acetylcholinesterase (AchE) assay in MCF-7 cells (FIG. 6, Panel A); MDA-MB-231 cells (FIG. 6, Panel B); and K562 cells (FIG. 6, Panel C).

| SMILES | average AChE concentrations throughout days 1 to day 5 [1] | average AChE concentration levels throughout day 1 to 5 [2] | Alix expression in EVs [3] | Mortalin expression in EVs [3] | Vimentin expression in EVs [3] | Mortalin expression in EVs [4] | Alix expression in EVs [4] | Vimentin expression in EVs [4] | Vimentin expression in EVs [5] | exosome/EV release (number of EVs released) [6] | Mortalin expression in EVs [5] |
| --- | --- | --- | --- | --- | --- | --- | --- | --- | --- | --- | --- |
| CN(C)c1nc(N)c(C(=O)NC(=N)N)nc1Cl [DMA, 5-(N,N-Dimethyl)amiloride] | 26 mU/mL | 37 mU/mL | significantly decreased | significantly decreased | significantly increased | no significant changes | not accompanied by significant reductions | significantly decreased | significantly decreased | reduced the number of EVs released; also recorded: blocked exosome release |  |
| CCn1c(=Cc2cccc[n+]2CC)sc(=C2Sc3ccccc3N2C)c1=O.[Cl-] [MKT-077, 1-Ethyl-2-[[3-ethyl-5-(3-methyl-2(3H)-benzothiazolylidene)-4-oxo-2-thiazolidinylidene]methyl]-pyridinium chloride] | 22 mU/mL | 29 mU/mL | significantly decreased | significantly decreased | significantly increased | significantly decreased | significantly decreased | significantly decreased | no significant change | reduced the number of EVs released; also recorded: blocked exosome release | No significant change |
| COc1ccc2[nH]c([S+]([O-])Cc3ncc(C)c(OC)c3C)nc2c1 (centres unmarked) [Omeprazole, 5-Methoxy-2-[[(4-methoxy-3,5-dimethyl-2-pyridinyl)methyl]sulfinyl]-1H-benzimidazole] | 26 mU/mL | 25 mU/mL | significantly decreased | significantly decreased | significantly increased | no significant changes | not accompanied by significant reductions | significantly decreased | no significant change | reduced the number of EVs released; also recorded: blocked exosome release | No significant change |
